Data on 20 substances can be found in publication PMC7932537, “Quantitative profiling of protease specificity” (PLoS Computational Biology, 2021).

For experiment [1], the system named is MMP-9. Nature of the experiment: Substrate phage display with NGS: relative probability (RP) of P3-P1' tetramer clusters. It is filed as biochemical, human. As to conditions: for corresponding MMP9 relative probability (RP): MMP2 tetramers from unique substrates, RP of same tetramer for MMP9; for normalized RP - MMP9: normalized RP of matching tetramer.
Experiment [2] deals with MMP-2. The description is as above. It is filed as biochemical, human. As to conditions: for avg_RP: MMP2 - no binning; for MMP2 relative probability (RP): MMP2 tetramers from unique substrates, unrounded values; for relative_probability: tetramer clusters unique to the MMP-2 selectome, MMP-2 RP; for relative probability (RP) of matching tetramer: P3-P1' tetramer matching the MS detected MMP2 cleavage sequence, RP_above_4.5; for normalized RP - MMP2: normalized RP of matching tetramer.

The mark [3] stands for this setting: MMP9, RP of the P3-P1' tetramer contained in the hexamer substrate (substrate phage display, NGS).
[4] abbreviates: RP of the P3-P1' tetramer cluster contained in the hexamer, 200 nM MMP-2, 2 h, 37°C, two rounds of selection.
The mark [5] stands for this setting: RP according to MMP2, P3-P1' tetramer of unique physiologic MMP2 substrates from MEROPS.
The mark [6] stands for this setting: RP of the P3-P1' tetramer, MMP9 substrate phage display/NGS, tetramers of physiologic MEROPS substrates common to MMP2 and MMP9.
[7] abbreviates: RP of the P3-P1' tetramer, MMP2 substrate phage display/NGS, tetramers of physiologic MEROPS substrates common to MMP2 and MMP9.
Setting [8] is: MMP9, RP of matching P3-P1' tetramer, common set of MMP2-9 selectome.
Where [9] appears, read: MMP9, RP of the P3-P1' tetramer matching the MS detected cleavage, RP above 4.7, substrate phage display with NGS.
Where [10] appears, read: RP of matching tetramer, common MMP2-9 selectome, RP above KL threshold.
Setting [11] is: MMP2, RP of matching P3-P1' tetramer, common set of MMP2-9 selectome, RP above KL threshold.
The mark [12] stands for this setting: RP of matching tetramer, common MMP2-9 selectome.
Setting [13] is: RP of matching tetramer, unique part of MMP2 selectome.
The mark [14] stands for this setting: RP of matching tetramer, unique part of MMP2 selectome, RP above KL threshold.
The mark [15] stands for this setting: RP according to MMP9, P3-P1' tetramer of unique physiologic MMP9 substrates from MEROPS.

Take KSPQAM: the entries for the “relative probability (RP)” value in experiment [1] (setting [3]) and in experiment [2] (setting [4]) were 47.1106 and 28.5429, respectively.

With KSPQSY, the “relative probability (RP)” value in experiment [1] (setting [3]) worked out at 42.416; in experiment [2] (setting [4]), 26.1515.

As for KSPSRL, the figures for the “relative probability (RP)” value in experiment [1] (setting [3]) and in experiment [2] (setting [4]) were 39.8157 and 31.7732, respectively.

For KSPVGV, the “relative probability (RP)” value in experiment [1] (setting [3]) came to 34.3287; in experiment [2] (setting [4]), 27.6556.

In the case of LAEL [P3-P1' tetramer cluster], the “relative probability (RP)” value in experiment [1] (tetramer projected onto MMP-9 cleavage sites determined by Prudova et al. (2010)) was 0.44. For the same substance, the avg_RP in experiment [2] (average relative probability of the tetramer, redundant tetramers averaged out) is recorded as 27.078.

Regarding LAGL [P3-P1' tetramer cluster], the “corresponding MMP9 relative probability (RP)” value in experiment [1] is listed as 1.413. In experiment [2], the “MMP2 relative probability (RP)” value amounted to 32.2383 and the relative_probability was 32.24. For the same substance, in experiment [2] (setting [5]), the “Relative probability (RP) rank” value is 174 and the “relative probability (RP)” value amounted to 32.24.

On to LAHA, for which the “corresponding MMP9 relative probability (RP)” value in experiment [1] was determined as 0.5961. In addition, the “MMP2 relative probability (RP)” value in experiment [2] is 10.8276. Moreover, in experiment [2] (setting [5]), the “Relative probability (RP) rank” value stood at 4607 and the “relative probability (RP)” value turned out to be 10.83. For the same substance, the “relative probability (RP)” value in experiment [2] (tetramer annotation of MMP-2 cleavage sites in physiologic substrates from MEROPS) is 10.83.

Regarding LANM, the “relative probability (RP) (acc.to MMP9)” value in experiment [1] (setting [6]) stood at 5.47. The avg_RP in experiment [2] (average relative probability (RP) of the P3-P1' tetramer, redundant tetramers have been averaged out) was 31.4114. In addition, the “relative probability (RP) (acc.to MMP2)” value in experiment [2] (setting [7]) was determined as 31.41.

As to LAPL [P3-P1' tetramer cluster], in experiment [1], the “corresponding MMP9 relative probability (RP)” value was found to be 4.642. In addition, in experiment [2], the “MMP2 relative probability (RP)” value is 31.5631 and the relative_probability is 31.56. In experiment [2] (setting [5]), the “Relative probability (RP) rank” value was 227 and the “relative probability (RP)” value is on record as 31.56.

Regarding LAWL, the “relative probability (RP) (acc.to MMP9)” value in experiment [1] (setting [8]) and in experiment [1] (setting [10]) was 19.78 throughout. In experiment [1] (setting [9]), the “relative probability (RP)” value is recorded as 19.78. This substance showed an avg_RP in experiment [2] (average relative probability of the P3-P1' tetramer, redundant tetramers have been averaged out) of 22.0358. The “relative probability (RP) (acc.to MMP2)” value in experiment [2] (setting [11]) and in experiment [2] (setting [12]) was 22.04 each time. Also, the “relative probability (RP) of matching tetramer” value in experiment [2] is 22.04.

Regarding LAYL, the “relative probability (RP) (acc.to MMP9)” value in experiment [1] (setting [13]) was 2.51. For the same substance, the “normalized RP - MMP9” value in experiment [1] (unique part of MMP2 selectome) was found to be 0.04792. Moreover, the “relative probability (RP) of matching tetramer” value in experiment [2] is on record as 25.34. Also, the “relative probability (RP) (acc.to MMP2)” value in experiment [2] (setting [14]) came to 25.34. In addition, the “normalized RP - MMP2” value in experiment [2] (unique part of MMP2 selectome) was 0.6939.

As for LFGL, the “relative probability (RP) (acc.to MMP9)” value in experiment [1] (setting [8]) and in experiment [1] (setting [10]) was 14.17 each time. The “relative probability (RP)” value in experiment [1] (setting [9]) stood at 14.17. Besides, the “relative probability (RP) (acc.to MMP2)” value in experiment [2] (setting [11]) and in experiment [2] (setting [12]) was 12.87 throughout. Also, the “relative probability (RP) of matching tetramer” value in experiment [2] was determined as 12.87.

LGRF: in experiment [1], the “corresponding MMP9 relative probability (RP)” value worked out at 1.477. The “MMP2 relative probability (RP)” value in experiment [2] turned out to be 13.9898. Further, in experiment [2] (setting [5]), the “Relative probability (RP) rank” value stood at 3427 and the “relative probability (RP)” value amounted to 13.99.

Consider LGRY, for which the “relative probability (RP) (acc.to MMP9)” value in experiment [1] (setting [13]) worked out at 1.95. Besides, the “normalized RP - MMP9” value in experiment [1] (unique part of MMP2 selectome) was determined as 0.03723. For the same substance, the “relative probability (RP) of matching tetramer” value in experiment [2] was 17.67. Also, the “relative probability (RP) (acc.to MMP2)” value in experiment [2] (setting [14]) was found to be 17.67. The “normalized RP - MMP2” value in experiment [2] (unique part of MMP2 selectome) is 0.4838.

With LGTY, the “corresponding MMP9 relative probability (RP)” value in experiment [1] is on record as 0.2972. Moreover, the “MMP2 relative probability (RP)” value in experiment [2] turned out to be 6.755. Besides, in experiment [2] (setting [5]), the “Relative probability (RP) rank” value is reported as 6426 and the “relative probability (RP)” value worked out at 6.75.

Regarding LGVM, the “corresponding MMP9 relative probability (RP)” value in experiment [1] was found to be 1.791. The entries for the “Relative probability (RP) rank” value in experiment [1] (setting [15]) and in experiment [2] (setting [5]) were 10648 and 7712, respectively. The “relative probability (RP)” value in experiment [1] (setting [15]) was 1.79; in experiment [2] (setting [5]) it was 4.76. In addition, the “relative probability (RP) (acc.to MMP9)” value in experiment [1] (setting [6]) came to 1.79. The “MMP2 relative probability (RP)” value in experiment [2] stood at 4.758. In experiment [2] (setting [7]), the “relative probability (RP) (acc.to MMP2)” value is 4.76.

With LPKPLR, the results for the “relative probability (RP)” value in experiment [1] (setting [3]) and in experiment [2] (setting [4]) were 48.2599 and 33.5622, respectively.

Turning to LRAV, in experiment [1] (setting [9]), the “relative probability (RP)” value came to 11.9. Moreover, in experiment [1] (setting [10]), the “relative probability (RP) (acc.to MMP9)” value stood at 11.9. The “relative probability (RP) (acc.to MMP2)” value in experiment [2] (setting [12]) came out at 11.96.

With LREL, the “relative probability (RP) (acc.to MMP9)” value in experiment [1] (setting [8]) and in experiment [1] (setting [10]) was 21.21 each time. For the same substance, in experiment [1] (setting [9]), the “relative probability (RP)” value is 21.21. Moreover, the “relative probability (RP) (acc.to MMP2)” value in experiment [2] (setting [11]) and in experiment [2] (setting [12]) was 21.53 throughout. The “relative probability (RP) of matching tetramer” value in experiment [2] was found to be 21.53.

In the case of LRGL, the “relative probability (RP) (acc.to MMP9)” value in experiment [1] (setting [6]) was determined as 28.75. In addition, the “relative probability (RP) (acc.to MMP2)” value in experiment [2] (setting [7]) is listed as 20.33.
